Measurements as given in US20250340574A1, “MODULATORS OF CYSTIC FIBROSIS TRANSMEMBRANE CONDUCTANCE REGULATOR” (Vertex Pharmaceuticals Incorporated, priority 2022, published 2025).

Target: T1, CFTR (F508del/MF-HBE cells) (Homo sapiens, UniProt P13569, DEL508-508)
T1 construct: human bronchial epithelial (HBE) cells derived from CF subjects heterozygous for F508del and a minimal function CFTR mutation (F508del/MF-HBE); endogenous in cells; host or cells: Primary human bronchial epithelial cells from CF subjects (F508del/MF genotype), differentiated at an air-liquid interface
T1 sequence (P13569 with tags, fused parts or gaps DEL508-508): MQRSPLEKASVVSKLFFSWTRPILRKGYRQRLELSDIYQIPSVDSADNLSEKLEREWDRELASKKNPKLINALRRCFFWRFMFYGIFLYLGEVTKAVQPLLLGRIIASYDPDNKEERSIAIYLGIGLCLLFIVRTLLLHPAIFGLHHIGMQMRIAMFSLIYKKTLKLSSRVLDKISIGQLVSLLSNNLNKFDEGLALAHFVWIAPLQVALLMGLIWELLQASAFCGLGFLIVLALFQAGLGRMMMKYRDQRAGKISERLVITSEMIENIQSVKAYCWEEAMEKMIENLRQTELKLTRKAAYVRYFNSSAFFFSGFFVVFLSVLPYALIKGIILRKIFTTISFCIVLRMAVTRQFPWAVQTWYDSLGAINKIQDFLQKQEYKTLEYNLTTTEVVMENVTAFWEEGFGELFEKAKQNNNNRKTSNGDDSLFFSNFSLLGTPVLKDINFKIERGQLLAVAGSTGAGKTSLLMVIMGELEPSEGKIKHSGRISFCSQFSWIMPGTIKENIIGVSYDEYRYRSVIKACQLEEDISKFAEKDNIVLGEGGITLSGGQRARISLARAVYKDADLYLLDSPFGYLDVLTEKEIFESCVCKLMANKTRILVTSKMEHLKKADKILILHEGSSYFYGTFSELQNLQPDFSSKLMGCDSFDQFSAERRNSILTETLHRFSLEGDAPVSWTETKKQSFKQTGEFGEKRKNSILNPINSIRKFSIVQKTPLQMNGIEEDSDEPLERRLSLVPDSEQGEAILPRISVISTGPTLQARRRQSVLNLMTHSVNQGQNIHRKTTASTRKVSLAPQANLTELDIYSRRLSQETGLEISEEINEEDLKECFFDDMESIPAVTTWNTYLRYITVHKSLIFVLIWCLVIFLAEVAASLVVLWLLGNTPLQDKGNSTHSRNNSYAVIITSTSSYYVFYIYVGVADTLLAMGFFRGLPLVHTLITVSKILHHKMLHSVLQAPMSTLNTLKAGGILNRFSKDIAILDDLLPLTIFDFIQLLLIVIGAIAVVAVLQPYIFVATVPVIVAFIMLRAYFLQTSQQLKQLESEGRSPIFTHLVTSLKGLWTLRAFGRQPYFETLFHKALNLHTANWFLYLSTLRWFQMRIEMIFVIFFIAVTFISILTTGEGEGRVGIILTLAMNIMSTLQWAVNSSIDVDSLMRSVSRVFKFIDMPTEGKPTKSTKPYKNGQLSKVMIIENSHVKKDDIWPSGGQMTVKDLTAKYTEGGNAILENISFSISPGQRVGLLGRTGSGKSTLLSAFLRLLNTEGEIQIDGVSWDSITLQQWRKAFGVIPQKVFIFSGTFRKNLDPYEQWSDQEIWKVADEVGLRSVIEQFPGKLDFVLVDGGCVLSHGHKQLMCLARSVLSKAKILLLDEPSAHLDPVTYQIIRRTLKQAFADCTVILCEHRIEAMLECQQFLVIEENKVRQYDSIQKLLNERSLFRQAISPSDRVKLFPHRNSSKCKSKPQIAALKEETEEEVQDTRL
Assay: Ussing chamber assay of CFTR-mediated short-circuit currents, Assay A (0.1 μM to 25 μM, 6 concentrations)
Format: cell-based
Conditions: with 33 nM potentiator and 18 μM Tezacaftor, 20% human serum; for Emax: 18-24 hours, read-out: A Max activity (%)
Experimental: Ussing chamber experiments were performed using human bronchial epithelial (HBE) cells derived from CF subjects heterozygous for F508del and a minimal function CFTR mutation (F508del/MF-HBE) and cultured as previously described (Neuberger T, Burton B, Clark H, Van Goor F Methods Mol Biol 2011:741:39-54). After four days the apical media was removed, and the cells were grown at an air liquid interface for >14 days prior to use.
To isolate the CFTR-mediated short-circuit (ISC) current, F508del/MF-HBE grown on Costar® Snapwell™ cell culture inserts were mounted in an Ussing chamber and the transepithelial ISC was measured under voltage-clamp recording conditions (Vhold=0 mV) at 37° C. The basolateral solution contained (in mM) 145 NaCl, 0.83 K2HPO4, 3.3 KH2PO4, 1.2 MgCl2, 1.2 CaCl2, 10 Glucose, 10 HEPES (pH adjusted to 7.4 with NaOH) and the apical solution contained (in mM) 145 NaGluconate, 1.2 MgCl2, 1.2 CaCl2, 10 glucose, 10 HEPES (pH adjusted to 7.4 with NaOH) and 30 μM amiloride to block the epithelial sodium channel. Forskolin (20 μM) was added to the apical surface to activate CFTR, followed by apical addition of a CFTR inhibitor cocktail consisting of BPO, GlyH-101, and CFTR inhibitor 172 (each at 20 μM final assay concentration) to specifically isolate CFTR currents. The CFTR-mediated ISC (μA/cm^2) for each condition was determined from the peak forskolin response to the steady-state current following inhibition.
The activity of the CFTR corrector compounds on the CFTR-mediated ISC was determined in Ussing chamber studies as described above. The F508del/MF-HBE cell cultures were either incubated with the corrector compounds at a range of concentrations in combination with 33 nM (6R,12R)-17-amino-12-methyl-6,15-bis(trifluoromethyl)-13,19-dioxa-3,4,18-triazatricyclo[12.3.1.12,5]nonadeca-1(18),2,4,14,16-pentaen-6-ol and 18 μM Tezacaftor or were incubated with the corrector compounds at a single fixed concentration of 1 μM in combination with 44 nM (6R,12R)-17-amino-12-methyl-6,15-bis(trifluoromethyl)-13,19-dioxa-3,4,18-triazatricyclo[12.3.1.12,5]nonadeca-1(18),2,4,14,16-pentaen-6-ol and 18 μM Tezacaftor for 18-24 hours at 37° C. and in the presence of 20% human serum. The concentration of corrector compounds with 44 nM or 33 nM (6R,12R)-17-amino-12-methyl-6,15-bis(trifluoromethyl)-13,19-dioxa-3,4,18-triazatricyclo[12.3.1.12,5]nonadeca-1(18),2,4,14,16-pentaen-6-ol and 18 μM Tezacaftor during the 18-24 hours incubations was kept constant throughout the Ussing chamber measurement of the CFTR-mediated ISC to ensure compounds were present throughout the entire experiment. The efficacy and potency of the putative F508del correctors was compared to that of the known Vertex corrector, (14S)-8-[3-(2-{Dispiro[2.0.2.1]heptan-7-yl}ethoxy)-1H-pyrazol-1-yl]-12,12-dimethyl-2λ^6-thia-3,9,11,18,23-pentaazatetracyclo[17.3.1.111,14.05,10]tetracosa-1(22),5,7,9,19(23),20-hexaene-2,2,4-trione, in combination with 18 μM Tezacaftor and 1 μM Ivacaftor.
• Assay A: 0.1 μM to 25 μM, 6 concentrations • Assay B: 0.00001 μM to 25 μM, 12 concentrations • Assay C: 0.026 μM to 25 μM, 6 concentrations • Assay D: Activity at single concentration of 1 μM

SMILES | Emax [%] | EC50 [µM]
Cc1cccc(C)c1-c1cc2nc(n1)NS(=O)(=O)c1cccc(c1)C(=O)N(Cc1cn3cccc(C#N)c3n1)[C@H](CC(C)(C)C)CO2 [III-10] | > 60 | < 1
Cc1cccc(C)c1-c1cc2nc(n1)NS(=O)(=O)c1cccc(c1)C(=O)N(Cc1cnc3cc(C(C)C)n(C)c3n1)[C@@H](CCC1(C)CC1)CO2 (stereo in doubt) [Compound I-72] | > 60 | < 1
Cc1cccc(C)c1-c1cc2nc(n1)NS(=O)(=O)c1cccc(c1)C(=O)N(Cc1cnc3cc(C(C)C)n(C)c3n1)[C@H](C[C@@H]1CCCO1)CO2 (stereo in doubt) [Compound I-16] | > 60 | < 1
Cc1cccc(C)c1-c1cc2nc(n1)NS(=O)(=O)c1cccc(c1)C(=O)N(Cc1cnc3oc(C(C)C)cc3n1)[C@H](CC1C3(CC3)C13CC3)CO2 [Compound I-101] | > 60 | < 1
Cc1cccc(C)c1-c1cc2nc(n1)NS(=O)(=O)c1cccc(c1)C(=O)N(Cc1nc3cc(C(C)C)oc3cc1F)[C@H](CC(C)(C)C)CO2 [Compound I-63] | > 60 | < 1
Cc1cccc(C)c1-c1cc2nc(n1)NS(=O)(=O)c1cccc(c1)C(=O)N(Cc1cnc3cc(C(C)C)n(C)c3n1)[C@H](C[C@H]1CCCCO1)CO2 [Compound I-3] | > 60 | < 1
Cc1cccc(C)c1-c1cc2nc(n1)NS(=O)(=O)c1cccc(c1)C(=O)N(Cc1cnc3oc(C(C)C)c(C)c3n1)[C@H](CCC1(C)CCC1)CO2 [Compound I-34] | > 60 | < 1
Cc1cccc(C)c1-c1cc2nc(n1)NS(=O)(=O)c1cccc(c1)C(=O)N(Cc1cnc3oc(C(C)C)cc3n1)[C@H](CC1(C(F)(F)F)CC1)CO2 [Compound I-54] | > 60 | < 1
Cc1cccc(C)c1-c1cc2nc(n1)NS(=O)(=O)c1cccc(c1)C(=O)N(Cc1cn3cccc(N)c3n1)[C@H](CC(C)(C)C)CO2 [III-12] | > 60 | < 1
Cc1cccc(C)c1-c1cc2nc(n1)NS(=O)(=O)c1cccc(c1)C(=O)N(Cc1cnc3oc(C(C)C)c(C)c3n1)[C@H](CCC(C)C)CO2 [Compound I-19] | > 60 | < 1
Cc1cccc(C)c1-c1cc2nc(n1)NS(=O)(=O)c1cccc(c1)C(=O)N(Cc1cnc3oc(C4CC4)cc3n1)[C@H](CC(C)(C)F)CO2 [Compound I-51] | > 60 | < 1
Cc1cccc(C)c1-c1cc2nc(n1)NS(=O)(=O)c1cccc(c1)C(=O)N(Cc1cnc3oc(C4CC4)cc3n1)[C@H](CC(C)(C)C)CO2 [Compound I-20] | > 60 | < 1
Cc1cccc(C)c1-c1cc2nc(n1)NS(=O)(=O)c1cccc(c1)C(=O)N(Cc1cnc3c(n1)CC(C(C)C)O3)[C@H](CC1(C)CC1)CO2 (single isomer, unassigned) [III-13] | > 60 | < 1
Cc1cccc(C)c1-c1cc2nc(n1)NS(=O)(=O)c1cccc(c1)C(=O)N(Cc1cnc3oc(C(C)C)cc3n1)[C@H](CC(C)(C)F)CO2 [Compound I-35] | > 60 | < 1
Cc1cccc(C)c1-c1cc2nc(n1)NS(=O)(=O)c1cccc(c1)C(=O)N(Cc1cnc3oc(C(C)C)cc3n1)C(COC1CCC1)CO2 (single isomer, unassigned) [Compound I-49, 11-(cyclobutoxymethyl)-6-(2,6-dimethylphenyl)-12-[(6-isopropylfuro[2,3-b]pyrazin-2-yl)methyl]-2,2-dioxo-9-oxa-2λ^6-thia-3,5,12,19-tetrazatricyclo[12.3.1.14,8]nonadeca-1(18),4(19),5,7,14,16-hexaen-13-one] | > 60 | < 1
Cc1cccc(C)c1-c1cc2nc(n1)NS(=O)(=O)c1cccc(c1)C(=O)N(Cc1cnc3oc(C(C)C)cc3n1)[C@H](C[C@H]1CCCCO1)CO2 [Compound I-7] | > 60 | < 1

SMILES | Emax [%] | EC50 [µM]
Cc1cccc(C)c1-c1cc2nc(n1)NS(=O)(=O)c1cccc(c1)C(=O)N(Cc1nc3cc(C(C)C)oc3cc1F)[C@H](CC1(C)CC1)CO2 [Compound I-78] | > 60 | < 1
Cc1cccc(C)c1-c1cc2nc(n1)NS(=O)(=O)c1cccc(c1)C(=O)N(Cc1cnc3oc(C(C)C)cc3n1)[C@H](CC(C)C)CO2 [Compound I-1] | > 60 | < 1
Cc1cccc(C)c1-c1cc2nc(n1)NS(=O)(=O)c1cccc(c1)C(=O)N(Cc1cnc3oc(C4CC4)cc3n1)[C@H](CCC1(C)CCC1)CO2 [Compound I-47] | > 60 | < 1
Cc1cccc(C)c1-c1cc2nc(n1)NS(=O)(=O)c1cccc(c1)C(=O)N(Cc1cnc3nc(C(C)C)n(C)c3n1)[C@H](CC1(C)CC1)CO2 [Compound I-75] | > 60 | < 1
Cc1cccc(C)c1-c1cc2nc(n1)NS(=O)(=O)c1cccc(c1)C(=O)N(Cc1cn3ccc(C(C)C)cc3n1)[C@H](CC(C)(C)C)CO2 [III-1, (11R)-6-(2,6-dimethylphenyl)-11-(2,2-dimethylpropyl)-12-[(7-isopropylimidazo[1,2-a]pyridin-2-yl)methyl]-2,2-dioxo-9-oxa-2λ^6-thia-3,5,12,19-tetrazatricyclo[12.3.1.14,8]nonadeca-1(18),4(19),5,7,14,16-hexaen-13-one] | > 60 | < 1
Cc1cccc(C)c1-c1cc2nc(n1)NS(=O)(=O)c1cccc(c1)C(=O)N(Cc1nc3c(cc1F)cc(C(C)C)n3C)[C@H](CC(C)(C)C)CO2 [Compound I-6] | > 60 | < 1
Cc1cccc(C)c1-c1cc2nc(n1)NS(=O)(=O)c1cccc(c1)C(=O)N(Cc1cnc3oc(C(C)C)c(C)c3n1)[C@H](COC(C)C)CO2 [Compound I-10] | > 60 | < 1
Cc1cccc(C)c1-c1cc2nc(n1)NS(=O)(=O)c1cccc(c1)C(=O)N(Cc1cnc3oc(C(C)C)c(C#N)c3n1)[C@H](COC(C)C)CO2 [Compound I-91] | > 60 | < 1
Cc1cccc(C)c1-c1cc2nc(n1)NS(=O)(=O)c1cccc(c1)C(=O)N(Cc1cnc3oc(C(C)C)c(C)c3n1)[C@H](CC1(C)CC1)CO2 [Compound I-17] | > 60 | < 1
Cc1cccc(C)c1-c1cc2nc(n1)NS(=O)(=O)c1cccc(c1)C(=O)N(Cc1cnc3oc(C)c(C4CC4)c3n1)[C@H](CCC(C)(C)C)CO2 [Compound I-27] | > 60 | < 1
Cc1cccc(C)c1-c1cc2nc(n1)NS(=O)(=O)c1cccc(c1)C(=O)N(Cc1nc3cc(C(C)C)oc3cc1F)[C@@H](COC1CCC1)CO2 (stereo in doubt) [Compound I-95] | > 60 | < 1
Cc1cccc(C)c1-c1cc2nc(n1)NS(=O)(=O)c1cccc(c1)C(=O)N(Cc1cnc3oc(C4CC4)cc3n1)[C@@H](COC1CCC1)CO2 (stereo in doubt) [Compound I-58] | > 60 | < 1
Cc1cccc(C)c1-c1cc2nc(n1)NS(=O)(=O)c1cccc(c1)C(=O)N(Cc1cnc3oc(C(C)C)c(C)c3n1)[C@H](CC1CCCCC1)CO2 [Compound I-12] | > 60 | < 1
Cc1cccc(C)c1-c1cc2nc(n1)NS(=O)(=O)c1cccc(c1)C(=O)N(Cc1cnc3nc(C(C)C)n(C)c3n1)[C@H](COC(C)C)CO2 [Compound I-90] | > 60 | < 1
Cc1cccc(C)c1-c1cc2nc(n1)NS(=O)(=O)c1cccc(c1)C(=O)N(Cc1cnc3c(n1)CC(C(C)C)O3)[C@H](CC1(C)CC1)CO2 (single isomer, unassigned) [III-14] | – | < 1
